Assay results: patent US10766888B1, “HMOX1 inducers” (Mitobridge Inc., priority 2019, dated 2020)

System: Human Heme Oxygenase-1 (HMOX-1)
Assay: ELISA assay to measure human heme oxygenase-1 (HMOX-1) in HepG2 lysate
Assay type: cell-based
Details: for EC50: human HMOX1 protein level in HepG2 lysate, * = average of 2 or more EC50 determinations, NA = Not Active, read-out: EC50; for Maximum Fold induction: fold change of human HMOX1 protein level relative to DMSO control, HepG2
Experimental: Example 143. ELISA Assay to Measure Human Heme Oxygenase-1 (HMOX-1) in HepG2 lysate
Reagents and Technical Notes:
ELISA capture antibody, standard HO-1, detection antibody and streptavidin HRP were supplied in the DuoSet IC Human total HO-1 ELISA from R&D systems (DYC3776-2). The substrate cocktail was KPL LumiGLO reserve Chemiluminescent Substrate (54-71-00). PBS was Corning Cellgro Cell Culture (21-040-CV). 10×PBS+0.05% tween20 (PBST) was from KPL.
All incubations of the plate were at room temperature (20° C.) in a closed drawer.
The ELISA plate was processed manually. All loadings were with a multichannel pipet. Plates were emptied by shaking into the sink and tapping onto paper towels to remove any remaining reagent. Plate washing was accomplished by loading all wells with PBS+0.05% tween20 (PBST) using a squirt bottle, shaking the PBST out and tapping the plate onto paper towels.
Preparation of the ELISA Plate:
• 1. anti-HO-1 capture antibody was 1440 μg/ml after reconstitution in PBS. This antibody was diluted to 8 μg/ml in PBS and 50 μl per well was added to a 384 well greiner “lumitrac 200” plate. Incubated overnight. • 2. The plate was emptied and 100 μl PBS+1% BSA added to all wells. Incubated 90 minutes at room temperature. Preparation of HepG2 Lysate: • 1. Cells were cultured in a 96-well tissue culture plate washed with PBS and then the plate frozen at −70° C. overnight. Plates were allowed to warm to ice temperature in an ice bucket. 20 μl of PBS, 0.5% Triton X100, 1 mM EDTA with 1×HALT™ protease inhibitors was added to each well and the plates incubated on ice for 1 hour. • 2. The lysates were frozen at −20° C. overnight. Measurement of HMOX1 (“HO-1”) • 1. In a polypropylene 384 well plate, human HO-1 (after reconstitution in PBS+0.5% Triton+1 mM EDTA) was serially diluted from 20 ng/ml 2-fold in PBS+0.5% triton-X100, 1 mM EDTA to make a 12-point standard curve including a zero point. • 2. In a polypropylene 96 well plate, HepG2 lysate was diluted 1 to 20 in Diluent #4 from DUOSET kit in which the assay standard is also diluted. • 3. The PBS+1% BSA was emptied from the ELISA plate and 30 μl of all samples and standards were added (duplicates recommended). The plate was incubated 90 minutes. • 4. Emptied plate and washed 4 times with PBST. • 5. Diluted HO-1 detection antibody to 200 ng/ml in PBS+1% BSA and added 30 μl to all wells. Incubated 90 minutes. • 6. Emptied plate and washed 4 times with PBST. • 7. Added 30 μl streptavidin HRP at 1/200 in PBS+1% BSA (stock streptavidin concentration not specified) to all wells. Incubated 30 minutes. • 8. Emptied plate and washed 4 times with PBST. • 9. Diluted Lumiglo reserve reagent two parts buffer to one part lumiglo substrate. Added 30 μl to all wells. Incubated 5 minutes. • 10. Measured chemiluminescence on spectramax M5 using 150 ms integration.
Table 1 below lists EC50 and fold changes of human HMOX1 protein levels relative to DMSO control upon treatment with representative compounds.

## Cn1c(Nc2nc3ccccc3o2)nc2cc(C(=O)O)ccc21 [Example 1h, 2-(benzo[d]oxazol-2-ylamino)-1-methyl-1H-benzo[d]imidazole-5-carboxylic acid]
  EC50: 4.4 µM

## COCCNC(=O)c1ccc2c(c1)nc(Nc1nc3ccccc3o1)n2C [Example 1i, 2-(benzo[d]oxazol-2-ylamino)-N-(2-methoxyethyl)-1-methyl-1H-benzo[d]imidazole-5-carboxamide]
  EC50: 0.8 µM

## COCCNC(=O)c1ccc2c(c1)nc(Nc1nc3ccc(OC(F)(F)F)cc3s1)n2C1CCOCC1 [Example 2e, N-(2-methoxyethyl)-1-(tetrahydro-2H-pyran-4-yl)-2-((6-(trifluoromethoxy)benzo[d]thiazol-2-yl)amino)-1H-benzo[d]imidazole-5-carboxamide]
  EC50: 3.8 µM

## CN1CCC(n2c(Nc3nc4ccc(OC(F)(F)F)cc4s3)nc3cc(C(=O)O)ccc32)CC1 [Example 3d, 1-(1-methylpiperidin-4-yl)-2-((6-(trifluoromethoxy)benzo[d]thiazol-2-yl)amino)-1H-benzo[d]imidazole-5-carboxylic acid]
  EC50: 9.2 µM

## COCCNC(=O)c1ccc2c(c1)nc(Nc1nc3ccc(OC(F)(F)F)cc3s1)n2C1CCN(C)CC1 [Example 3e, N-(2-methoxyethyl)-1-(1-methylpiperidin-4-yl)-2-((6-(trifluoromethoxy)benzo[d]thiazol-2-yl)amino)-1H-benzo[d]imidazole-5-carboxamide]
  EC50: 1.1 µM

## CN1CCC(n2c(Nc3nc4ccc(OC(F)(F)F)cc4s3)nc3cc(C(=O)O)ccc32)C1 (stereo not drawn) [Example 4d, 1-(1-methylpyrrolidin-3-yl)-2-((6-(trifluoromethoxy)benzo[d]thiazol-2-yl)amino)-1H-benzo[d]imidazole-5-carboxylic acid]
  EC50: 4.7 µM

## COCCNC(=O)c1ccc2c(c1)nc(Nc1nc3c(s1)COCC3)n2C [Example 11, 2-((6,7-dihydro-4H-pyrano[4,3-d]thiazol-2-yl)amino)-N-(2-methoxyethyl)-1-methyl-1H-benzo[d]imidazole-5-carboxamide]
  EC50: 6.6 µM

## COCCNC(=O)c1ccc2c(c1)nc(Nc1nc3ccccc3[nH]1)n2C [Example 12, 2-((1H-benzo[d]imidazol-2-yl)amino)-N-(2-methoxyethyl)-1-methyl-1H-benzo[d]imidazole-5-carboxamide]
  EC50: 4.5 µM

## Cn1c(Nc2nc3cc(C(=O)O)ccc3n2C)nc2cc(OC(F)(F)F)ccc21 [Example 15, 1-methyl-2-((1-methyl-5-(trifluoromethoxy)-1H-benzo[d]imidazol-2-yl)amino)-1H-benzo[d]imidazole-5-carboxylic acid]
  EC50: 5.3 µM

## CN(C)CCNC(=O)c1ccc2c(c1)nc(Nc1nc3ccccc3o1)n2C [Example 21, 2-(benzo[d]oxazol-2-ylamino)-N-(2-(dimethylamino)ethyl)-1-methyl-1H-benzo[d]imidazole-5-carboxamide]
  EC50: 1.1 µM

## Cn1c(Nc2nc3ccc(OC(F)(F)F)cc3o2)nc2cc(C(=O)NCCS(C)(=O)=O)ccc21 [Example 54, 1-methyl-N-(2-(methylsulfonyl)ethyl)-2-((6-(trifluoromethoxy)benzo[d]oxazol-2-yl)amino)-1H-benzo[d]imidazole-5-carboxamide]
  EC50: 3.2 µM

## COCCOc1ccc2nc(Nc3nc4cc(C(=O)O)ccc4n3C)oc2c1 [Example 55, 2-((6-(2-methoxyethoxy)benzo[d]oxazol-2-yl)amino)-1-methyl-1H-benzo[d]imidazole-5-carboxylic acid]
  Maximum Fold induction: 15 fold
  EC50: 4.5 µM

## CC(C)c1ccc2nc(Nc3nc4cc(C(=O)O)ccc4n3C)oc2c1 [Example 59, 2-((6-isopropylbenzo[d]oxazol-2-yl)amino)-1-methyl-1H-benzo[d]imidazole-5-carboxylic acid]
  EC50: 3.3 µM

## COCCNC(=O)c1ccc2c(c1)nc(Nc1nc3cc(C)ccc3o1)n2C [Example 65, N-(2-methoxyethyl)-1-methyl-2-((5-methylbenzo[d]oxazol-2-yl)amino)-1H-benzo[d]imidazole-5-carboxamide]
  Maximum Fold induction: 15.42 fold
  EC50: 1.2 µM

## Cn1c(Nc2nc3cc(F)ccc3o2)nc2cc(C(=O)O)ccc21 [Example 66, 2-((5-fluorobenzo[d]oxazol-2-yl)amino)-1-methyl-1H-benzo[d]imidazole-5-carboxylic acid]
  EC50: 5.4 µM

## Cn1c(Nc2nc3ccc(F)cc3o2)nc2cc(C(=O)O)ccc21 [Example 68, 2-((6-fluorobenzo[d]oxazol-2-yl)amino)-1-methyl-1H-benzo[d]imidazole-5-carboxylic acid]
  EC50: 2 µM

## Cn1c(Nc2nc3ccc(OC(F)(F)F)cc3o2)nc2cc(C(=O)O)c(F)cc21 [Example 70, 6-fluoro-1-methyl-2-((6-(trifluoromethoxy)benzo[d]oxazol-2-yl)amino)-1H-benzo[d]imidazole-5-carboxylic acid]
  EC50: 3.2 µM

## CN(C)CCn1c(Nc2nc3ccc(OC(F)(F)F)cc3o2)nc2cc(C(=O)O)ccc21 [Example 74, 1-(2-(dimethylamino)ethyl)-2-((6-(trifluoromethoxy)benzo[d]oxazol-2-yl)amino)-1H-benzo[d]imidazole-5-carboxylic acid]
  EC50: 3.6 µM

## COCCNC(=O)c1ccc2c(c1)nc(Nc1nc3cc(OC(F)(F)F)ccc3[nH]1)n2CCOC [Example 76, N,1-bis(2-methoxyethyl)-2-((5-(trifluoromethoxy)-1H-benzo[d]imidazol-2-yl)amino)-1H-benzo[d]imidazole-5-carboxamide]
  EC50: 2.7 µM

## COCCn1c(Nc2nc3ccc(OC(F)(F)F)cc3o2)nc2cc(C(=O)O)ccc21 [Example 77, 1-(2-methoxyethyl)-2-((6-(trifluoromethoxy)benzo[d]oxazol-2-yl)amino)-1H-benzo[d]imidazole-5-carboxylic acid]
  EC50: 4.1 µM

## COCCNC(=O)c1ccc2c(c1)nc(Nc1nc3ccc(OC(F)(F)F)cc3o1)n2CCOC [Example 78, N,1-bis(2-methoxyethyl)-2-((6-(trifluoromethoxy)benzo[d]oxazol-2-yl)amino)-1H-benzo[d]imidazole-5-carboxamide]
  EC50: 2.2 µM

## COCCNC(=O)c1ccc2c(c1)nc(Nc1nc3ccc(OC(F)(F)F)cc3o1)n2C1CCOCC1 [Example 80, N-(2-methoxyethyl)-1-(tetrahydro-2H-pyran-4-yl)-2-((6-(trifluoromethoxy)benzo[d]oxazol-2-yl)amino)-1H-benzo[d]imidazole-5-carboxamide]
  EC50: 1.9 µM

## COCCNC(=O)c1ccc2c(c1)nc(Nc1nc3cc(OC(F)(F)F)ccc3[nH]1)n2C1CCOCC1 [Example 81, N-(2-methoxyethyl)-1-(tetrahydro-2H-pyran-4-yl)-2-((5-(trifluoromethoxy)-1H-benzo[d]imidazol-2-yl)amino)-1H-benzo[d]imidazole-5-carboxamide]
  EC50: 2.3 µM

## Cn1c(Nc2nc3cc(Cl)ccc3[nH]2)nc2cc(C(=O)O)ccc21 [Example 82, 2-((5-chloro-1H-benzo[d]imidazol-2-yl)amino)-1-methyl-1H-benzo[d]imidazole-5-carboxylic acid]
  EC50: 2.4 µM

## COCCNC(=O)c1ccc2c(c1)nc(Nc1nc3cc(Cl)ccc3[nH]1)n2C [Example 83, 2-((5-chloro-1H-benzo[d]imidazol-2-yl)amino)-N-(2-methoxyethyl)-1-methyl-1H-benzo[d]imidazole-5-carboxamide]
  EC50: 1.8 µM
